The source of these data is US8227207B2, “Bioactive peptides derived from the proteins of egg white by means of enzymatic hydrolysis” (Consejo Superior de Investigaciones Cientifcas, priority 2004, dated 2012).

Structures are written as SMILES. Entries after “also recorded” stand apart in the source; their conditions may differ. Residues, ends and D or L forms follow the SMILES beside them.

Experiment [1] deals with Wistar-Kyoto rats (WKY). The experiment in a line: Systolic arterial pressure (tail cuff) in normotense Wistar-Kyoto rats. In kind it is in vivo, rat. The settings on record: highest dose used, intragastric probe. As for the experimental part: (§1) The effect is studied of various identified peptides and of some products containing them (for example egg white hydrolysed with pepsin for 3 hours and the fraction of it less than 3000 Da) on the arterial pressure of spontaneously hypertensive rats (SHR) and Wistar-Kyoto rats (WKY) which are the normotense controls for the SHR.
(§2) This study is conducted with SHR (10) and WKY of 17-24 weeks old and weight between 300 and 350 g, coming from Charles River Laboratories España, S. A. The rats are kept in cages of five by five and maintained at a stable temperature of 25° C. with light-dark cycles of 12 hours, ingesting freely available water and food. In order to carry out the measurement of systolic arterial pressure (SAP) “tail cuff” equipment is used (Le5001, Letica) which automatically provides a digital value of the SAP and records and facilitates the cardiac frequency of the animals. Various measurements are made and the average of all of them is obtained in order to achieve a reliable value of the SAP. Before positioning the cuff and transducer in the tail of the rats, the rats are exposed to a temperature of close to 30° C. in order to facilitate dilation of the caudal artery. Also, in order to ensure the reliability of the measurement, the animals are made to get used to the procedure for two weeks prior to conducting each assay in question.
(§3) The administration of the products to be assayed is done by means of an intragastric probe in a time margin of between 9 and 10 o'clock in the morning. The SHR used for the study had SAP values of between 230 and 280 mm Hg. The WKY used for the study at that moment had SAP values of between 160 and 200 mm Hg. Measurements of the SAP were taken from the animals periodically, every 2 hours, up to 8 hours post-administration of the products to be assayed; in addition, a SAP measurement was taken 24 hours after the administration of those products. As negative control (in order to establish the circadian variation of the SAP in probed rats) the measurements of the SAP obtained in rats which had been administered 1 ml of water by means of intragastric probe were used. As positive control, the measurements of the SAP obtained in rats which had been administered 50 mg/kg of Captopril (prototype ACEI drug) by means of intragastric probe were used. This dose of Captopril was administered to each rat in a volume of 1 ml. In order to establish the effect of the unhydrolysed egg white on the arterial pressure of the animals, similar assays to those described above were conducted, in which the animals were treated by the same procedure with 200 mg/kg of previously freeze-dried egg white (reference).
The results obtained are grouped and the mean±the standard error of measurement (SEM) is obtained for a minimum of 9 homogenous assays. […]

Experiment [2] has as its system spontaneously hypertensive rats (SHR). The experiment in a line: Anti-hypertensive activity, systolic arterial pressure (SAP), in spontaneously hypertensive rats. In kind it is in vivo, rat. The settings on record: oral, intragastric probe, Captopril 50 mg/kg, SEQ. ID. No 6 and 3 0.5-2 mg/kg, SEQ. ID. No 2 1-4 mg/kg. On the procedure:
(§4) The effect is studied of various identified peptides and of some products containing them (for example egg white hydrolysed with pepsin for 3 hours and the fraction of it less than 3000 Da) on the arterial pressure of spontaneously hypertensive rats (SHR) and Wistar-Kyoto rats (WKY) which are the normotense controls for the SHR. This study is conducted with SHR (10) and WKY of 17-24 weeks old and weight between 300 and 350 g, coming from Charles River Laboratories […]. The rats are kept in cages of five by five and maintained at a stable temperature of 25° C. with light-dark cycles of 12 hours, ingesting freely available water and food. In order to carry out the measurement of systolic arterial pressure (SAP) “tail cuff” equipment is used (Le5001, Letica) which automatically provides a digital value of the SAP and records and facilitates the cardiac frequency of the animals. Various measurements are made and the average of all of them is obtained in order to achieve a reliable value of the SAP. Before positioning the cuff and transducer in the tail of the rats, the rats are exposed to a temperature of close to 30° C. in order to facilitate dilation of the caudal artery. Also, in order to ensure the reliability of the measurement, the animals are made to get used to the procedure for two weeks prior to conducting each assay in question. The administration of the products to be assayed is done by means of an intragastric probe in a time margin of between 9 and 10 o'clock in the morning. The SHR used for the study had SAP values of between 230 and 280 mm Hg. The WKY used for the study at that moment had SAP values of between 160 and 200 mm Hg. Measurements of the SAP were taken from the animals periodically, every 2 hours, up to 8 hours post-administration of the products to be assayed; in addition, a SAP measurement was taken 24 hours after the administration of those products. As negative control (in order to establish the circadian variation of the SAP in probed rats) the measurements of the SAP obtained in rats which had been administered 1 ml of water by means of intragastric probe were used. […] This dose of Captopril was administered to each rat in a volume of 1 ml. In order to establish the effect of the unhydrolysed egg white on the arterial pressure of the animals, similar assays to those described above were conducted, in which the animals were treated by the same procedure with 200 mg/kg of previously freeze-dried egg white (reference). The results obtained are grouped and the mean±the standard error of measurement (SEM) is obtained for a minimum of 9 homogenous assays. The data of the treated animals are always compared with the data deemed to be a negative control. […]

Experiment [3] has the same test system. The experiment in a line: Antihypertensive activity: systolic arterial pressure (tail cuff) in spontaneously hypertensive rats. In kind it is in vivo, rat. As for the experimental part:
as §1, §2, §3
The results obtained are grouped and the mean±the standard error of measurement (SEM) is obtained for a minimum of 9 homogenous assays. The data of the treated animals are always compared with the data deemed to be a negative control. In order to compare them and obtain the statistical significance, Student's t-test for unpaired data is used and the difference for values of p<0.05 is considered significant.

In experiment [4] the test system is Wistar-Kyoto rats (WKY). Nature of the experiment: Effect on systolic arterial pressure (SAP) in normotense Wistar-Kyoto rats. The settings on record: intragastric probe, highest dose used: SEQ. ID. No 6 and 3 2 mg/kg, SEQ. ID. No 2 4 mg/kg, Captopril 50 mg/kg. In kind it is in vivo, rat. As for the experimental part: as §4
Experiment [5] relates to spontaneously hypertensive rats (SHR). The note with it: ovokinin oral 100 mg/kg, ovokinin (2-7) 10 mg/kg; cited from earlier work.
For experiment [6] the test system is unchanged. The note with it: literature, cited from earlier work; for anti-hypertensive activity relative to ovokinin (2-7): following administration to SHRs.
Experiment [7] relates to angiotensin converting enzyme (ACE). The settings on record: result in words, literature; cited from earlier work.
In experiment [8] the test system is angiotensin converting enzyme (ACE) (EC 3.4.15.1, Sigma). The experiment in a line: In vitro inhibitory activity of the angiotensin converting enzyme (ACEI activity). In kind it is biochemical. The settings on record: result in words. On the procedure:
Measurement of the Inhibitory Activity of the Angiotensin Converting Enzyme (ACEI Activity)
The inhibitory activity of the angiotensin converting enzyme (ACE) is measured in vitro according to the method of D. W. Cushman and H. S. Cheung (Spectrophotometric assay and properties of the angiotensin-converting enzyme of rabbit lung. Biochemical Pharmacology, 1971, 20: 1637-1648), later on modified by Y. K. Kim, S. Yoon, D. Y. Yu, B. Lönnerdal and B. H. Cheung (Novel angiotensin-I-converting enzyme inhibitory peptides derived from recombinant human αs1-casein expressed in Escherichia coli, Journal of Dairy Research 1999, 66, 431-439).
The substrate hippuryl histidyl leucine (HHL, Sigma Chemicals Co., St. Louis, Mo., USA) is dissolved in a 0.1 M borate buffer with 0.3 M NaCl pH 8.3 to obtain a final concentration of 5 mM. To 100 μl of substrate are added 40 μl of each of the samples whose ACEI activity it is wished to determine. The ACE enzyme (EC 3.4.15.1, Sigma) is added, dissolved in 50% glycerol and diluted 1/10 in bidistilled water at the moment of conducting the assay. The reaction is carried out at 37° C. for 30 minutes in a water-bath. The enzyme is deactivated by lowering the pH with 150 μl of 1 N HCl. The hippuric acid formed is extracted with 1000 μl of ethyl acetate. Following vortex stirring for 20 seconds, it is centrifuged at 4000 rpm for 10 minutes at room temperature. 750 μl of the organic phase are taken and evaporated by heating at 95° C. for 10 minutes. The hippuric acid residue is redissolved in 800 μl of bidistilled water and, following stirring for 20 seconds, the absorbency at 228 nm is measured in a Dur-70 spectrophotometer from Beckman Instruments, Inc., Fullerton, USA.
In order to calculate the percentage of ACEI activity, the following formula is used
The blank is used for correcting the background absorbency. This contains substrate, enzyme and 20 μl of bidistilled water in place of the sample, and the reaction is halted at zero time. The control implies a hundred percent of the enzymatic action on the substrate in the absence of inhibitors and contains 20 μl of water in place of the sample and is incubated the same time as the sample.
The results are presented as the IC50 (μM or μg/ml) or concentration at which 50% of the enzyme's activity is inhibited. The concentration of protein is determined by means of the bicinchonomic acid (BCA) assay (Pierce, Rockford, Ill., USA) using bovine seroalbumin as reference.

Take `C[C@H](CS)C(=O)N1CCC[C@H]1C(=O)O` [Captopril, reference compound]: the “change in SAP in normotense rats (in words)” value in the experiment with Wistar-Kyoto rats (WKY) [1] is listed as “none of these compounds modifies the SAP”. In addition, in experiment [2], the “anti-hypertensive activity / drop in SAP” value is on record as “pronounced drop in SAP in the SHR”. Also, the “time of maximum drop in SAP after administration” value in experiment [3] (intragastric probe) was 6 h. Further, the “drop in systolic arterial pressure (SAP) / anti-hypertensive activity (in words)” value in experiment [3] (single administration by intragastric probe) is given as “pronounced drop in SAP”. Further, the “effect on SAP” value in the experiment with Wistar-Kyoto rats (WKY) [4] is “none of these compounds modifies the SAP of WKY rats”.
For `CC(C)C[C@H](N)C(=O)N[C@@H](Cc1c[nH]c2ccccc12)C(=O)O` [LW], the “anti-hypertensive / vasodilatory activity in SHR (in words)” value in experiment [5] is listed as “displayed anti-hypertensive activity”. The anti-hypertensive activity result in experiment [6] (SHR, ovokinin orally 100 mg/kg) is “displayed anti-hypertensive activity in spontaneously hypertensive rats (SHR)”.
On to `N=C(N)NCCC[C@H](N)C(=O)N1CCC[C@H]1C(=O)N[C@@H](Cc1ccccc1)C(=O)N[C@@H](Cc1cnc[nH]1)C(=O)N1CCC[C@H]1C(=O)N[C@@H](Cc1ccccc1)C(=O)O` [RPFHPF] (H-RPFHPF-OH), for which the ACEI activity entry in experiment [7] is reported as “neither ovokinin (2-7), nor its RPFHPF (SEQ. ID. NO: 10) or RPLKPW (SEQ. ID. NO: 11) derivatives possessed ACEI activity”. Besides, the minimum effective dose in experiment [6] (SHR) is recorded as 1 mg/kg. Also, the “anti-hypertensive activity relative to ovokinin (2-7)” value in experiment [6] is listed as 10 times.
Take `CC(C)C[C@H](NC(=O)[C@@H]1CCCN1C(=O)[C@@H](N)CCCNC(=N)N)C(=O)N[C@@H](CCCCN)C(=O)N1CCC[C@H]1C(=O)N[C@@H](Cc1c[nH]c2ccccc12)C(=O)O` [RPLKPW] (H-RPLKPW-OH): the ACEI activity entry in experiment [7] is “neither ovokinin (2-7), nor its RPFHPF (SEQ. ID. NO: 10) or RPLKPW (SEQ. ID. NO: 11) derivatives possessed ACEI activity”. The minimum effective dose in experiment [6] (SHR) is 0.1 mg/kg. The “anti-hypertensive activity relative to ovokinin (2-7)” value in experiment [6] is listed as 100 times.
Regarding `CC[C@H](C)[C@H](N)C(=O)N[C@H](C(=O)N[C@@H](Cc1ccccc1)C(=O)O)C(C)C` [SEQ. ID. No 2, IVF], the “anti-hypertensive activity / drop in SAP” value in experiment [2] was “possess anti-hypertensive activity in spontaneously hypertensive rats (SHR); also recorded: display anti-hypertensive activity in rats”. In the experiment with Wistar-Kyoto rats (WKY) [4], the “effect on SAP” value is listed as “none of these compounds modifies the SAP of WKY rats”. Besides, in experiment [8], the “ACEI activity in vitro” value was “potent ACEI activity in vitro”.
The corresponding values for `CC(C)C[C@H](NC(=O)[C@H](Cc1ccccc1)NC(=O)[C@@H]1CCCN1C(=O)[C@H](Cc1cnc[nH]1)NC(=O)[C@H](CC(=O)O)NC(=O)[C@H](C)NC(=O)[C@@H](N)CCCNC(=N)N)C(=O)O` [SEQ. ID. No 3, RADHPFL] (H-RADHPFL-OH) are “possess anti-hypertensive activity in spontaneously hypertensive rats (SHR); also recorded: display anti-hypertensive activity in rats”, “none of these compounds modifies the SAP of WKY rats” and “potent ACEI activity in vitro”.
`CC[C@H](C)[C@H](NC(=O)[C@@H]1CCCN1C(=O)[C@H](Cc1ccc(O)cc1)NC(=O)[C@H](CCCNC(=N)N)NC(=O)[C@H](CCC(=O)O)NC(=O)[C@H](CCC(=O)O)NC(=O)[C@H](C)NC(=O)[C@@H](N)Cc1ccc(O)cc1)C(=O)N[C@@H](CC(C)C)C(=O)O` [SEQ. ID. No 6] (H-YAEERYPIL-OH): the “anti-hypertensive activity / drop in SAP” value in experiment [2] is on record as “possess anti-hypertensive activity in spontaneously hypertensive rats (SHR); also recorded: display anti-hypertensive activity in rats”. Besides, the “effect on SAP” value in the experiment with Wistar-Kyoto rats (WKY) [4] is given as “none of these compounds modifies the SAP of WKY rats”. In experiment [8], the “ACEI activity in vitro” value is “potent ACEI activity in vitro”.
